# Values of other authors as cited in patent publication US9198974B2, “Decorated macromolecular scaffolds” (Mintaka Foundation for Medical Research, priority 2011, dated 2015).
# Conditions: for pKa, o-: ortho-substituted aniline; for pKa, o- / pKa, m-: listed as gives the substituent; for pKa, m-: meta-substituted aniline
SMILES,"pKa, o-","pKa, m-",further results
Nc1ccccc1C(F)(F)F [o-F3C—],3.49,–,–
Nc1ccccc1F [o-F—],2.96,–,–
CC(C)(C)c1ccccc1N [o-(CH3)3C—],3.78,–,–
"CCOc1ccc(N)cc1 [p-C2H5O—, 4-ethoxy aniline]",–,–,pKa (preferred aniline catalysts): 5.2
Nc1ccccc1O [o-HO—],4.72,–,–
Cc1ccccc1N [o-CH3—],4.38,–,–
Nc1ccccc1N [o-H2N—],4.47,–,–
CCOc1ccccc1N [o-C2H5O—],4.47,–,–
COC(=O)c1cccc(N)c1 [m-CH3O2C—],–,3.56,–
Nc1cccc(C(F)(F)F)c1 [m-F3C—],–,2.57,–
COc1ccccc1N [o-CH3O—],4.49,–,–
Nc1ccccc1[N+](=O)[O-] [o-O2N—],−0.28,–,–
Nc1cccc(C(=O)O)c1 [m-HO2C—],–,3.05,–
Nc1ccccc1-c1ccccc1 [o-C6H5—],3.78,–,–
Nc1ccccc1S(=O)(=O)O [o-O3S—],3.80,–,–
Nc1ccccc1C(=O)O [o-HO2C—],2.04,–,–
COC(=O)c1ccccc1N [o-CH3O2C—],2.16,–,–

SMILES,"pKa, o-","pKa, m-",further results
Nc1cccc(F)c1 [m-F—],–,3.38,–
CSc1cccc(N)c1 [m-CH3S—],–,4.40,–
CCOc1cccc(N)c1 [m-C2H5O—],–,4.17,–
Nc1cccc(S(=O)(=O)O)c1 [m-O3S—],–,3.32,–
CCOC(=O)c1ccccc1N [o-C2H5O2C—],2.10,–,–
Nc1cccc(O)c1 [m-HO—],–,4.17,–
Nc1cccc(N)c1 [m-H2N—],–,4.88,–
COc1cccc(N)c1 [m-CH3O—],–,4.20,–
Nc1cccc(Br)c1 [m-Br—],–,3.51,–
Nc1cccc([N+](=O)[O-])c1 [m-O2N—],–,2.45,–
CCOC(=O)c1cccc(N)c1 [m-C2H5O2C—],–,2.38,–
Cc1cccc(N)c1 [m-CH3—],–,4.67,–
Nc1ccccc1Br [o-Br—],2.6,–,–
Nc1ccccc1Cl [o-Cl—],2.62,–,–
Nc1cccc(Cl)c1 [m-Cl—],–,3.32,–
Nc1cccc(-c2ccccc2)c1 [m-C6H5—],–,4.18,–
CSc1ccccc1N [o-CH3S—],4.05,–,–
